In patent US20250082573A1, “COMPOSITIONS AND METHODS FOR DELIVERY OF OCULAR THERAPEUTICS” (The Board of Trustees of the Leland Stanford Junior …, priority 2023, published 2025):

How the values were obtained:
[1] = following IV administration; cited from earlier work
[2] = VH mimic depot formation and model cargo release assay; type: physicochemical; conditions: cargo in PNP hydrogel vs PBS bolus, 50 μL into VH mimic; fluorescein 0.25 mg mL^−1, albumin-FITC 10 mg mL^−1
Experimental: This example describes PNP-2-10 hydrogel depot formation and model cargo release in a VH mimic. The PNP-2-10 hydrogel was prepared as described in Example 1. The present technology is directed to ITV administration of PNP hydrogels in the sensitive environment of the eye. To better visualize and understand how the PNP hydrogels would behave in the VH, depot formation and model cargo release were analyzed in a VH mimic composed of agar and hyaluronic acid (HA). […]
To prepare the VH mimic release assay, 50 μL of PNP hydrogel or PBS loaded with either 0.25 mg mL^−1 fluorescein or 10 mg mL^−1 albumin-FITC (MW˜66 kDa, mol FITC:mol albumin=14) was injected through a 30-gauge needle into a cuvette containing a VH mimic. […] Dye release was quantified using ImageJ software. Images were separated into red, blue, and green channels and the intensity in the green channel within a region inside the hydrogel depot or initial PBS injection site was measured for each time point, denoted Itn. […] The fraction of dye remaining in the gel depot at the final time point was determined by comparing the change in background intensity from times t0 to tplateau for PBS and gel samples:
The percent of dye retained in the gel or PBS injection site at each time point tn was determined by normalizing the intensity as
where tf is the final time point measured and C is a constant defined by […]

Q: For CCNC(=O)CCC/C=C\C[C@@H]1[C@@H](/C=C/[C@@H](O)CCc2ccccc2)[C@H](O)C[C@@H]1O [bimatoprost], which elimination half-life [1] is on record?
A: The elimination half-life was 45 min.

Q: Which “increase of effective half-life of retention compared to the control PBS bolus” value [2] does the source give for “albumin-FITC: a model protein, MW˜66 kDa, mol FITC:mol albumin=14” here?
A: Its value is “over 3.7 fold”.
